Measured values reported in PubChem BioAssay (NCI).
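Assay format: 96-well plates, 48-hour exposure. GI50 marks 50% less growth. TGI: concentration producing complete growth inhibition.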

Experiments:
Assay in all cases: DTP human tumour cell line panel, 48 h
UACC-62 melanoma = test system: UACC-62 melanoma
MDA-MB-468 breast = test system: MDA-MB-468 breast
HCT-116 colon = test system: HCT-116 colon
K-562 leukemia = test system: K-562 leukemia
A498 renal = test system: A498 renal
COLO 205 colon = test system: COLO 205 colon
UACC-257 melanoma = test system: UACC-257 melanoma
MALME-3M melanoma = test system: MALME-3M melanoma
HS 578T breast = test system: HS 578T breast
NCI-H522 lung = test system: NCI-H522 lung
SNB-75 CNS = test system: SNB-75 CNS
EKVX NSCLC = test system: EKVX NSCLC
OVCAR-5 ovarian = test system: OVCAR-5 ovarian
KM12 colon = test system: KM12 colon
SK-OV-3 ovarian = test system: SK-OV-3 ovarian
HCT-15 colon = test system: HCT-15 colon
NCI/ADR-RES ovarian = test system: NCI/ADR-RES ovarian
HL-60(TB) leukemia = test system: HL-60(TB) leukemia
TK-10 renal = test system: TK-10 renal
CAKI-1 renal = test system: CAKI-1 renal
RPMI-8226 leukemia = test system: RPMI-8226 leukemia
LOX IMVI melanoma = test system: LOX IMVI melanoma
ACHN renal = test system: ACHN renal
HCC-2998 colon = test system: HCC-2998 colon
HOP-92 NSCLC = test system: HOP-92 NSCLC
SK-MEL-5 melanoma = test system: SK-MEL-5 melanoma
IGROV1 ovarian = test system: IGROV1 ovarian
NCI-H23 lung = test system: NCI-H23 lung
SK-MEL-28 melanoma = test system: SK-MEL-28 melanoma
UO-31 renal = test system: UO-31 renal
OVCAR-4 ovarian = test system: OVCAR-4 ovarian
MDA-MB-435 = test system: MDA-MB-435
SR leukemia = test system: SR leukemia
SW-620 colon = test system: SW-620 colon
CCRF-CEM leukemia = test system: CCRF-CEM leukemia
MDA-MB-231 breast = test system: MDA-MB-231 breast
DU-145 prostate = test system: DU-145 prostate
SN12C renal = test system: SN12C renal
T-47D breast = test system: T-47D breast
SF-268 CNS = test system: SF-268 CNS
SK-MEL-2 melanoma = test system: SK-MEL-2 melanoma
SF-539 CNS = test system: SF-539 CNS
M14 melanoma = test system: M14 melanoma
SNB-19 CNS = test system: SNB-19 CNS
MOLT-4 leukemia = test system: MOLT-4 leukemia
RXF 393 renal = test system: RXF 393 renal
HT29 colon = test system: HT29 colon

SMILES: Cc1ccc2c(c1)nc(-c1ccccc1)n2CC(=O)N=Nc1c(O)[nH]c2ccc(Cl)cc12
- GI50 (UACC-62 melanoma): 1.75 µM
- TGI (UACC-62 melanoma): 3.45 µM
- GI50 (MDA-MB-468 breast): 1.34 µM
- TGI (MDA-MB-468 breast): 2.77 µM
- GI50 (HCT-116 colon): 2.48 µM
- TGI (HCT-116 colon): 6.21 µM
- GI50 (K-562 leukemia): 3.13 µM
- TGI (K-562 leukemia): > 100 µM
- GI50 (A498 renal): 1.91 µM
- TGI (A498 renal): 3.93 µM
- GI50 (COLO 205 colon): 2.67 µM
- TGI (COLO 205 colon): 7 µM
- GI50 (UACC-257 melanoma): 1.86 µM
- TGI (UACC-257 melanoma): 3.77 µM
- GI50 (MALME-3M melanoma): 1.87 µM
- TGI (MALME-3M melanoma): 4.07 µM
- GI50 (HS 578T breast): 2.09 µM
- TGI (HS 578T breast): 6.14 µM
- GI50 (NCI-H522 lung): 1.67 µM
- TGI (NCI-H522 lung): 3.38 µM
- GI50 (SNB-75 CNS): 1.52 µM
- TGI (SNB-75 CNS): 3.39 µM
- GI50 (EKVX NSCLC): 1.61 µM
- TGI (EKVX NSCLC): 3.71 µM
- GI50 (OVCAR-5 ovarian): 2.91 µM
- TGI (OVCAR-5 ovarian): 9.28 µM
- GI50 (KM12 colon): 2.95 µM
- TGI (KM12 colon): 9.49 µM
- GI50 (SK-OV-3 ovarian): 2.11 µM
- TGI (SK-OV-3 ovarian): 4.44 µM
- GI50 (HCT-15 colon): 1.81 µM
- TGI (HCT-15 colon): 3.57 µM
- GI50 (NCI/ADR-RES ovarian): 1.84 µM
- TGI (NCI/ADR-RES ovarian): 3.55 µM
- GI50 (HL-60(TB) leukemia): 4.62 µM
- TGI (HL-60(TB) leukemia): 29.8 µM
- GI50 (TK-10 renal): 2.79 µM
- TGI (TK-10 renal): 7.18 µM
- GI50 (CAKI-1 renal): 2.18 µM
- TGI (CAKI-1 renal): 6.64 µM
- GI50 (RPMI-8226 leukemia): 2.78 µM
- TGI (RPMI-8226 leukemia): 10.4 µM
- GI50 (LOX IMVI melanoma): 1.57 µM
- TGI (LOX IMVI melanoma): 2.98 µM
- GI50 (ACHN renal): 1.61 µM
- TGI (ACHN renal): 3.31 µM
- GI50 (HCC-2998 colon): 1.79 µM
- TGI (HCC-2998 colon): 3.47 µM
- GI50 (HOP-92 NSCLC): 1.57 µM
- TGI (HOP-92 NSCLC): 3.76 µM
- GI50 (SK-MEL-5 melanoma): 2.01 µM
- TGI (SK-MEL-5 melanoma): 4.92 µM
- GI50 (IGROV1 ovarian): 1.69 µM
- TGI (IGROV1 ovarian): 3.38 µM
- GI50 (NCI-H23 lung): 1.7 µM
- TGI (NCI-H23 lung): 3.35 µM
- GI50 (SK-MEL-28 melanoma): 1.88 µM
- TGI (SK-MEL-28 melanoma): 3.52 µM
- GI50 (UO-31 renal): 1.38 µM
- TGI (UO-31 renal): 3.36 µM
- GI50 (OVCAR-4 ovarian): 2.37 µM
- TGI (OVCAR-4 ovarian): 5.93 µM
- GI50 (MDA-MB-435): 2.38 µM
- TGI (MDA-MB-435): 5.44 µM
- GI50 (SR leukemia): 3.41 µM
- TGI (SR leukemia): > 100 µM
- GI50 (SW-620 colon): 2.07 µM
- TGI (SW-620 colon): 4.43 µM
- GI50 (CCRF-CEM leukemia): 2.41 µM
- TGI (CCRF-CEM leukemia): 52.9 µM
- GI50 (MDA-MB-231 breast): 1.83 µM
- TGI (MDA-MB-231 breast): 3.52 µM
- GI50 (DU-145 prostate): 2.53 µM
- TGI (DU-145 prostate): 5.8 µM
- GI50 (SN12C renal): 1.78 µM
- TGI (SN12C renal): 3.54 µM
- GI50 (T-47D breast): 1.94 µM
- TGI (T-47D breast): 5.14 µM
- GI50 (SF-268 CNS): 2.36 µM
- TGI (SF-268 CNS): 6.49 µM
- GI50 (SK-MEL-2 melanoma): 10.5 µM
- TGI (SK-MEL-2 melanoma): 25 µM
- GI50 (SF-539 CNS): 1.69 µM
- TGI (SF-539 CNS): 3.29 µM
- GI50 (M14 melanoma): 2.17 µM
- TGI (M14 melanoma): 4.77 µM
- GI50 (SNB-19 CNS): 2.13 µM
- TGI (SNB-19 CNS): 5.55 µM
- GI50 (MOLT-4 leukemia): 2.39 µM
- TGI (MOLT-4 leukemia): 11.5 µM
- GI50 (RXF 393 renal): 1.5 µM
- TGI (RXF 393 renal): 3.04 µM
- GI50 (HT29 colon): 1.84 µM
- TGI (HT29 colon): 3.76 µM
